Laboratory results from patent US10195267B2, “Vaccination strategy” (priority 2013, dated 2019).
Oligonucleotides are written 5' to 3', each unit as a sugar letter and its base; * is a phosphorothioate linkage, no mark a phosphodiester; rarer units and linkages stand in square brackets, end groups in braces. Plain capitals give the bases only. d = 2'-deoxy (DNA)

Experiments:
CTLs = experiment: Local CTL expansion in iMATEs in the liver after systemic TLR9-L application; assay type: in vivo, mice
Text: We discovered that CTL activation by simultaneous stimulation through the TCR, CD28 and IL-12 in vitro, together with systemic application of TLR9-L led to a 50-fold expansion of CTLs locally in the liver. Myeloid cell aggregates, herewith termed iMATEs, which formed in the liver upon TLR9-signaling, facilitate massive CTL expansion, which contributes to anti-viral immunity and overcomes chronic viral infection in mice.

OT-I CTLs = experiment: Hepatic OT-I CTL expansion and iMATE formation in AdLGO- or AdLG-infected mice
CD8+ T cells (TCM, TEM) = experiment: Proliferation of adoptively transferred TCM and TEM in the liver (BrdU incorporation, 7-AAD); assay type: in vivo, mice; conditions: 3 days after intravenous TLR9-ligand
[1] = system: AdHBV (Hepatitis B Virus); experiment: Chronic AdHBV infection, HBc-DNA vaccination followed by TLR9-L at d12; assay type: in vivo, mice
Text: (a) Mice with chronic AdHBV-infection after 1×10^8 ifu AdHBV-infection. Time course of serum ALT following HBc-DNA vaccination (d0) and TLR9-L or CTRL treatment (d12). OVA-DNA vaccination as control. (n=5 per group). (b-f) At d15 after vaccination, (b) immunohistochemistry for CD11 b and CD8 in the liver as described in (a) at d15 after vaccination; (c) increase of HBc93-100-specific CTLs in spleen and liver detected by dextramer-staining. (n=3 per group), ND, not detectable; (d) IFNγ-producing HBc93-100-specific CTLs isolated from livers of mice after HBc-peptide-specific restimulation ex vivo; (e) total numbers of IFNγ-producing HBc93-100-specific CTLs after peptide-specific restimulation ex vivo per gram liver (n=3, per group); (f) PD-1 expression levels on HBc93-100-specific CTLs directly ex vivo. (g) Serum HBeAg levels from mice as described in (a). (h) Immunohistochemical detection and (i) quantification of HBcore-Ag-positive hepatocytes at d42 after vaccination. HPF, high power field (magnification, 100×). *P<0.05, **P<0.01, ***P<0.001 (paired Student's t-test). Data are representative of three experiments (a, c, d, e, f, g) or two experiments (b, h, i) (a, c, e, i; error bars, s.d.).
C57BL/6J mice were infected with 1×10^8 ifu AdHBV intravenously leading to chronic AdHBV infection, as reported previously (Huang et al. Gastroenterology 2012; 142:1447-50). DNA immunization was performed as described (Huang et al. Gastroenterology 2012; 142:1447-50). After immunization, HBeAg and serum ALT (alanine aminotransferase) activity measured using GPT strips on a REFLOVET™. Plus reader (Roche) were checked at indicated time points. Livers were collected for immunohistochemical analysis. Analysis of CTL number and function ex vivo was done as described previously (Huang et al. Gastroenterology 2012; 142:1447-50).
In this model, therapeutic DNA-vaccination leads to a weak increase in circulating HBV-specific CTLs but fails to control chronic_AdHBV infection. Mice with chronic AdHBV infection were subjected to DNA-vaccination with plasmids coding for the HBV core (HBc) antigen or OVA and received TLR9-L treatment 12 d later.

[2] = system: lymphocytic choriomeningitis virus (LCMV); assay type: in vivo, mice
[3] = system: recombinant adenovirus expressing OVA and luciferase (AdLOG); experiment: Acute adenoviral infection, in vivo bioluminescence as indicator of antiviral CTL activity in the liver
[4] = TLR9-L at d12 after HBcore-DNA vaccination

5′-S-TCCATGACGTTCCTGATGCT-3′ (DNA dT*dC*dC*dA*dT*dG*dA*dC*dG*dT*dT*dC*dC*dT*dG*dA*dT*dG*dC*dT) [TLR9-L]
expansion of CTLs locally in the liver (CTLs; CTLs activated in vitro through TCR, CD28 and IL-12, with systemic TLR9-L): 50 fold | autoimmunity (CTLs; single TLR9-L application): did not trigger autoimmunity | numbers of hepatic OT-I CTLs (OT-I CTLs; AdLG-infected mice (no OVA antigen), 1x10^5 activated OT-I CTLs plus TLR9-L): increase | further expansion of OT-I CTLs (OT-I CTLs; AdLGO-infected TLR9-L-injected mice, compared with AdLG-infected mice given TLR9-L): 7 fold | formation of iMATEs (OT-I CTLs; upon TLR9-L injection in adenovirus-infected mice): further improved | proliferation of adoptively transferred TEM in the liver (CD8+ T cells (TCM, TEM)): marked proliferation | proliferation of adoptively transferred TCM in the liver (CD8+ T cells (TCM, TEM); cells in S and G2-M phase): strong proliferation | serum ALT ([1]; DNA vaccination (HBc or OVA) and TLR9-L 12 d later, most pronounced in HBc-vaccinated mice): transient rise | serum HBeAg levels ([1]; HBc-DNA vaccination in combination with TLR9-L, after 28 d): significant downregulation | HBV-infected (HBcore-Ag-positive) hepatocytes ([1]; HBc-DNA vaccination in combination with TLR9-L, d42): elimination | PD1 expression on recently activated CD69+ HBcore-specific CTLs ([1]; HBc-DNA vaccination plus TLR9-L): lower expression levels | IFNgamma expression of HBcore-specific CTLs upon antigen-specific restimulation ex vivo [1, 4]: functional and expressed IFNγ | expansion of HBc-specific CTLs in livers [1, 4]: pronounced expansion | iMATE formation ([1]; mice with chronic AdHBV infection): induced iMATE formation | numbers of LCMV gp33-specific CTLs in the liver ([2]; LCMV-specific CTL transfer (10^6/mouse) together with TLR9-L at d0, d7 and d10): significant increase | LCMV titers in serum and liver ([2]; LCMV-specific CTL transfer together with TLR9-L injection): dropped to background levels | numbers of LCMV-specific CTLs ([2]; TLR9-L application alone, d14 after the first transfer): did not lead to significant increases | iMATE induction in livers ([2]; chronic LCMV-infected mice): can be induced | in vivo bioluminescence (hepatic viral luciferase expression) ([3]; TLR9-L application alone, mice infected with 10^6 ifu AdLOG): did not significantly reduce | time to efficient control of hepatic viral luciferase expression ([3]; transfer of 10^4 OT-I CTLs together with TLR9-L, 10^6 ifu AdLOG): ≤ 4 days
